These results are taken from US20230250123A1, “GUT MICROBIOTA BIOACTIVATED PDE4 INHIBITOR PRECURSORS” (Giiant Pharma Inc., priority 2020, published 2023).

Data set [1] is described as follows: In vitro rate of glycoside prodrug hydrolysis in feces supernatant, rat. It is filed as in vitro ADME. The note with it: 100 µM, 37° C., pH 6.5, 24 hr. The method, then: In vitro rate of glycoside prodrugs hydrolysis. The metabolic stability of prodrug candidates to release the parent PDE4 inhibitor could be assessed in vitro according, but not restricted, to the following protocol: feces were collected overnight on a mixture of dry and wet ice in a metabolic cage. Ten volumes (v/w; 30 mL) of 100 mM phosphate buffer (pH 6.5) were added to 3 g of freshly collected rodent feces. The mixture was homogenized with a Stomacher Circulator 400 (2 × 1 min-cycles at 225 rpm). The mixture was transferred to a 50 mL tubes, centrifuged at 10 000xg for 10 min (4° C.) and the supernatant was passed through a 0.45 µm-filter. In a 96 deep-well plate, 198 µL of feces supernatant were aliquoted in 2 wells per compound. Each compound, including positive control, was tested in duplicate. Then 2 µL of 10 mM stock solution of each test compound were spiked in individual wells (duplicate) at a final concentration of 100 µM and samples were sealed and mixed 30 sec at 1000 rpm using a vortexer. Samples were incubated at 37° C. for the desired time in the Thermomixer with constant agitation (300 rpm). At desired time-point, 25 µL of reaction mixture was added to 225 µL of ice-cold quenching solution (acetonitrile + 0.1% (v/v) formic acid) to stop the bacterial enzymatic activity. The quenched incubates were mixed and centrifuged 10 min at 21 000xg at 4° C. A real t0 (no metabolism, 100% total recovery of unchanged prodrug) was generated by adding 22.5 µL of feces supernatant to 225 µL of ice-cold quenching solution (acetonitrile + 0.1% (v/v) formic acid). Then 2.5 µL of 1 mM solution of each test compounds was added, sealed, mixed thoroughly and centrifuged 10 min at 21 000xg at 4° C. All samples, including analytical standards, were analyzed by LC-MS/MS to measure the concentration of the parent PDE4 inhibitor released and the concentration of the corresponding prodrug remaining. A set criteria of 100% recovery is targeted where the summation of the % of prodrug remaining and the % of parent PDE4 inhibitor released should be 100% with an experimental error tolerance of ± 20%. When prodrugs represented by Formula (I) were incubated 24 hours under the conditions described above using mouse, rat and dog feces, the glycoside prodrugs were hydrolyzed to release the corresponding parent PDE4 inhibitor III (Table 3). As a negative control, when compound 4, 10 and 21 were incubated 24 hours under the conditions described above but in the absence of enzyme activities, using mouse feces extract supernatant inactivated by boiling the supernatant 10 minutes, 100% of the prodrugs were recovered unchanged.

Data set [2] in a line: Bidirectional Caco-2 permeability assay. It is filed as in vitro ADME. The note with it: human; Caco-2, 10 µM, apical pH 6.0 / basolateral pH 7.4, average of 2 determinations. The procedure:
In vitro glycoside prodrug permeability assessment. The permeability of the glycoside prodrugs were measured using the bidirectional Caco-2 assay. Caco-2 cells were seeded onto permeable polycarbonate supports in 12-well Costar Transwell plates and allowed to grow and differentiate for 21-25 days. On day 24, culture medium (DMEM supplemented with 10% FBS, 1% non-essential amino acids and penicillin/streptomycin) was removed from both sides of the transwell inserts and cells were rinsed with warm HBSS. […] The buffer in the donor chamber (apical side for A-to-B assay, basolateral side for B-to-A assay) was removed and replaced with the working solution (10 µM test article in transport buffer). The plates were then placed at 37° C. under light agitation. At designated time points (30, 60 and 90 min); an aliquot of transport buffer from the receiver chamber was removed and replenished with fresh transport buffer. Samples were quenched with ice-cold CH3CN containing internal standard and then centrifuged to precipitate the protein. Resulting supernatants were further diluted with 50/50 ACN/H2O (H2O only for Atenolol) and submitted for LC/MS/MS analysis. […] Atenolol and propranolol were tested as low and […] permeability references. […] The apparent permeability (Papp, measured in cm/s) of a compound is determined according to the following formula: […]
Where dQ/dt is the net rate of appearance in the receiver compartment, A is the area of the Transwell measured in cm^2 (1.12 cm^2), C0 is the initial concentration of compound added to the donor chamber and 60 is the conversion factor for the minute to second.

One may read the Papp A→B as how fast a substance crosses the layer from the apical side. `OC[C@H]1O[C@@H](Oc2ccc(C[C@@H](c3ccc(OC(F)F)c(OC4CC4)c3)c3cnc(C(O)(C(F)(F)F)C(F)(F)F)s3)cn2)[C@H](O)[C@@H](O)[C@@H]1O` [Compound 2, (2S,3R,4S,5S,6R)-2-((5-((S)-2-(3-cyclopropoxy-4-(difluoromethoxy)phenyl)-2-(2-(1,1,1,3,3,3-hexafluoro-2-hydroxypropan-2-yl)thiazol-5-yl)ethyl)pyridin-2-yl)oxy)-6-(hydroxymethyl)tetrahydro-2 H-pyran-3,4,5-triol]: the “Prodrug Remaining @ 24 hr (%)” value in data set [1] is on record as 0.5%. In addition, the Papp A→B at 10 µM in data set [2] was 0.07 ×10⁻⁶ cm/s.
Take `CC(=O)OC[C@H]1O[C@@H](Oc2ccc(C[C@H](c3ccc(C(C)(C)O)nc3)c3ccc(OC(F)F)c(OC4CC4)c3)cn2)[C@H](OC(C)=O)[C@@H](OC(C)=O)[C@@H]1OC(C)=O` [Compound 3, (2R,3R,4S,5R,6S)-2-(acetoxymethyl)-6-((5-((S)-2-(3-cyclopropoxy-4-(difluoromethoxy)phenyl)-2-(6-(2-hydroxypropan-2-yl)pyridin-3-yl)ethyl)pyridin-2-yl)oxy)tetrahydro-2H-pyran-3,4,5-triyl triacetate]: the “Prodrug Remaining @ 24 hr (%)” value in data set [1] is 0.1%. The compound also came in with a Papp A→B at 10 µM in data set [2] of 1.4 ×10⁻⁶ cm/s.
In the case of `COC(=O)[C@H]1O[C@@H](Oc2ccc(C[C@@H](c3ccc(OC(F)F)c(OC4CC4)c3)c3cnc(C(O)(C(F)(F)F)C(F)(F)F)s3)cn2)[C@H](OC(C)=O)[C@@H](OC(C)=O)[C@@H]1OC(C)=O` [Compound 6, (2S,3R,4S,5S,6S)-2-((5-((S)-2-(3-cyclopropoxy-4-(difluoromethoxy)phenyl)-2-(2-(1,1,1,3,3,3-hexafluoro-2-hydroxypropan-2-yl)thiazol-5-yl)ethyl)pyridin-2-yl)oxy)-6-(methoxycarbonyl)tetrahydro-2H-pyran-3,4,5-triyl triacetate], the “Prodrug Remaining @ 24 hr (%)” value in data set [1] amounted to 23%.
With `COC(=O)[C@H]1O[C@@H](Oc2ccc(C[C@@H](c3ccc(OC(F)F)c(OC4CC4)c3)c3cnc(C(O)(C(F)(F)F)C(F)(F)F)s3)cn2)[C@H](O)[C@@H](O)[C@@H]1O` [Compound 7, (2S,3S,4S,5R,6S)-methyl 6-((5-((S)-2-(3-cyclopropoxy-4-(difluoromethoxy)phenyl)-2-(2-(1,1,1,3,3,3-hexafluoro-2-hydroxypropan-2-yl)thiazol-5-yl)ethyl)pyridin-2-yl)oxy)-3,4,5-trihydroxytetrahydro-2H-pyran-2-carboxylate], the “Prodrug Remaining @ 24 hr (%)” value in data set [1] turned out to be 35%. Further, in data set [2], the Papp A→B at 10 µM amounted to 1 ×10⁻⁶ cm/s.
On to `COC(=O)[C@H]1O[C@@H](Oc2ccc(C[C@H](c3ccc(C(C)(C)O)nc3)c3ccc(OC(F)F)c(OC4CC4)c3)cn2)[C@H](OC(C)=O)[C@@H](OC(C)=O)[C@@H]1OC(C)=O` [Compound 8, (2S,3R,4S,5S,6S)-2-((5-((S)-2-(3-cyclopropoxy-4-(difluoromethoxy)phenyl)-2-(6-(2-hydroxypropan-2-yl)pyridin-3-yl)ethyl)pyridin-2-yl)oxy)-6-(methoxycarbonyl)tetrahydro-2H-pyran-3,4,5-triyl triacetate], for which the Papp A→B at 10 µM in data set [2] stood at 0.6 ×10⁻⁶ cm/s.
Consider `CNC(=O)[C@H]1O[C@@H](Oc2ccc(C[C@@H](c3ccc(OC(F)F)c(OC4CC4)c3)c3cnc(C(O)(C(F)(F)F)C(F)(F)F)s3)cn2)[C@H](O)[C@@H](O)[C@@H]1O` [Compound 15, (2S,3S,4S,5R,6S)-methyl 6-((5-((S)-2-(3-cyclopropoxy-4-(difluoromethoxy)phenyl)-2-(2-(1,1,1,3,3,3-hexafluoro-2-hydroxypropan-2-yl)thiazol-5-yl)ethyl)pyridin-2-yl)oxy)-3,4,5-trihydroxytetrahydro-2H-pyran-2-carboxamide], for which, in data set [1], the “Prodrug Remaining @ 24 hr (%)” value is 74%. This compound registered a Papp A→B at 10 µM in data set [2] of 1.5 ×10⁻⁶ cm/s.
For `CC(=O)OC[C@H]1O[C@@H](Oc2ccc(C[C@H](c3ccc(C(C)(C)O)nc3)c3ccc(OC(F)F)c(OC4CC4)c3)cn2)[C@H](OC(C)=O)[C@@H](OC(C)=O)[C@H]1OC(C)=O` [Compound 17, (2R,3S,4S,5R,6S)-2-(acetoxymethyl)-6-((5-((S)-2-(3-cyclopropoxy-4-(difluoromethoxy)phenyl)-2-(6-(2-hydroxypropan-2-yl)pyridin-3-yl)ethyl)pyridin-2-yl)oxy)tetrahydro-2H-pyran-3,4,5-triyl triacetate], the “Prodrug Remaining @ 24 hr (%)” value in data set [1] is on record as 0.0%.
With `CC(C)(O)c1ccc([C@@H](Cc2ccc(O[C@@H]3O[C@H](CO)[C@H](O)[C@H](O)[C@H]3O)nc2)c2ccc(OC(F)F)c(OC3CC3)c2)cn1` [Compound 18, (2S,3R,4S,5R,6R)-2-((5-((S)-2-(3-cyclopropoxy-4-(difluoromethoxy)phenyl)-2-(6-(2-hydroxypropan-2-yl)pyridin-3-yl)ethyl)pyridin-2-yl)oxy)-6-(hydroxymethyl)tetrahydro-2H-pyran-3,4,5-triol], in data set [1], the “Prodrug Remaining @ 24 hr (%)” value came to 0.0%. In data set [2], the Papp A→B at 10 µM was 0.1 ×10⁻⁶ cm/s.
With `CC(=O)OC[C@H]1O[C@H](Oc2ccc(C[C@H](c3ccc(C(C)(C)O)nc3)c3ccc(OC(F)F)c(OC4CC4)c3)cn2)[C@@H](OC(C)=O)[C@@H](OC(C)=O)[C@@H]1OC(C)=O` [Compound 19, (2R,3R,4S,5S,6R)-2-(acetoxymethyl)-6-((5-((S)-2-(3-cyclopropoxy-4-(difluoromethoxy)phenyl)-2-(6-(2-hydroxypropan-2-yl)pyridin-3-yl)ethyl)pyridin-2-yl)oxy)tetrahydro-2H-pyran-3,4,5-triyl triacetate], the “Prodrug Remaining @ 24 hr (%)” value in data set [1] amounted to 0.7%.
Turning to `CC(C)(O)c1ccc([C@@H](Cc2ccc(O[C@H]3O[C@H](CO)[C@@H](O)[C@H](O)[C@@H]3O)nc2)c2ccc(OC(F)F)c(OC3CC3)c2)cn1` [Compound 20, (2R,3S,4S,5S,6R)-2-((5-((S)-2-(3-cyclopropoxy-4-(difluoromethoxy)phenyl)-2-(6-(2-hydroxypropan-2-yl)pyridin-3-yl)ethyl)pyridin-2-yl)oxy)-6-(hydroxymethyl)tetrahydro-2H-pyran-3,4,5-triol], the “Prodrug Remaining @ 24 hr (%)” value in data set [1] was determined as 0.0%. For the same compound, the Papp A→B at 10 µM in data set [2] came to 0.2 ×10⁻⁶ cm/s.
As to `CN(C)[C@H]1[C@H](Oc2ccc(C[C@@H](c3ccc(OC(F)F)c(OC4CC4)c3)c3cnc(C(O)(C(F)(F)F)C(F)(F)F)s3)cn2)O[C@H](CO)[C@@H](O)[C@@H]1O` [Compound 27, (2R,3S,4R,5R,6S)-6-((5-((S)-2-(3-cyclopropoxy-4-(difluoromethoxy)phenyl)-2-(2-(1,1,1,3,3,3-hexafluoro-2-hydroxypropan-2-yl)thiazol-5-yl)ethyl)pyridin-2-yl)oxy)-5-(dimethylamino)-2-(hydroxymethyl)tetrahydro-2H-pyran-3,4-diol], the “Prodrug Remaining @ 24 hr (%)” value in data set [1] is recorded as 93%. Moreover, the Papp A→B at 10 µM in data set [2] came out at 2.4 ×10⁻⁶ cm/s.
`CC(=O)OC[C@H]1O[C@@H](O[C@H]2[C@H](OC(C)=O)[C@@H](OC(C)=O)[C@H](Oc3ccc(C[C@H](c4ccc(C(C)(C)O)nc4)c4ccc(OC(F)F)c(OC5CC5)c4)cn3)O[C@@H]2COC(C)=O)[C@H](OC(C)=O)[C@@H](OC(C)=O)[C@@H]1OC(C)=O` [Compound 30, (2R,3R,4S,5R,6S)-2-(acetoxymethyl)-6-(((2R,3R,4S,5R,6S)-4,5-diacetoxy-2-(acetoxymethyl)-6-((5-((S)-2-(3-cyclopropoxy-4-(difluoromethoxy)phenyl)-2-(6-(2-hydroxypropan-2-yl)pyridin-3-yl)ethyl)pyridin-2-yl)oxy)tetrahydro-2H-pyran-3-yl)oxy)tetrahydro-2H-pyran-3,4,5-triyl triacetate]: the “Prodrug Remaining @ 24 hr (%)” value in data set [1] stood at 10%. The compound also returned a Papp A→B at 10 µM in data set [2] of 0.5 ×10⁻⁶ cm/s.
